{"source": "patent EP0256532B1", "about": "“Use of dihydrobenzopyrane derivatives” (F. HOFFMANN-LA ROCHE AG, priority 1986, dated 1988)", "key": {"[1]": {"tested_on": "LTE₄", "assay": "Rat colon mucosa in vitro (Ussing short-circuit technique), LTE₄-induced electrolyte secretion", "type": "cell-based, Ratte", "details": "6 animals", "source_text": "(§1) Das Bioassay-System des Versuches mit der Mucosa des Rattenkolons basiert auf der Messung der durch Absorption oder Sekretion bewirkten Aenderungen im Salztransport durch das tierische Gewebe, wobei man die durch Ussing et al. beschriebene Standard-Kurzschluss-Technik verwendet, Acta Physiol. Scand. 23, 110-127 (1951). Diarrhö ist das häufigste Symptom bei gastrointestinalen Entzündungen und tritt bei allen Typen der Enteritis auf. Pantera, et al., Ital. J. Gastroenterol. 13: 24-27 (1981); Sales, et al., Arch. Int. Med. 143: 294-299 (1983); Hodgson, Br. J. Clin. Pharmac. 14: 159-270 (1982). Diarrhö wird durch eine Abnahme in der Salzabsorption oder eine Zunahme in der Salzsekretion im Darm bewirkt und kann durch die oben erwähnte Methode von Ussing et al. in vitro quantifiziert werden. Man entfernt von 200-250 g schweren Tieren ein 1 cm langes Segment des Kolons, behandelt dieses in vitro mit Leukotrienen oder Bradykinin, welche die Salzsekretion fördern, und misst die erhaltene Aenderung im Netto-Salztransport, welche in Gegenwart und in Abwesenheit von 6-Acetyl-7-[5-(4-acetyl-3-hydroxy-2-propylphenoxy)pentyloxy] -3,4-dihydro-2H-1-benzopyran-2-carbonsäure als Hemmer erhalten wird. Gewebeproben werden paarweise in Ussing-Kammern befestigt und mit automatischen Spannungsklemmen (von der University of Iowa Bioengineering Department) kurzgeschlossen. […]"}, "[2]": {"tested_on": "Carrageenin-induzierte Colitis in Meerschweinchen", "assay": "Carrageenin-induced colitis in guinea pigs, in vivo (water transport in distal colon)", "design": "species or system Meerschweinchen (Hartley)", "details": "10 bzw. 30 mg/kg oral; Figur 5", "source_text": "Der Carrageenin-induzierte-Colitis-Bioassay an Meerschweinchen ist durch A. B. Onderdonk in Inflammatory Bowel Diseases, Martinus Nijhoff Publ., Boston, Massachusetts, Seiten 126-134 (1982) und in Human Intestinal Microflora in Health and Disease (D. J. Hentger. ed), Academic Press, New York, 1983, Seiten 447-479 beschrieben worden. Das aus Rotalgen herstammende Polysaccharid Jotacarrageenin bewirkt in Meerschweinchen eine Colitis, welche der ulcerativen Colitis im Menschen ähnlich ist. Männliche und weibliche, 400-650 g Meerschweinchen (Hartley) erhielten via Trinkwasser täglich eine 3-proz. Lösung von abgebautem Carrageenin. Nach etwa 7 Tagen begannen die Versuchstiere eine Diarrhö zu entwickeln, nahmen an Gewicht nicht mehr zu und wurden lethargisch. Nachdem die Versuchstiere während 14 Tagen auf diese Weise Carrageenin verabreicht erhielten, wurde die Diarrhö quantifiziert, und zwar durch Messung des Wassertransportes in den distalen Teil des Kolons durch einfache Pass-Perfusion unter Verwendung von 14C-Polyäthylenglykol 4000 (PEG 4000) als Marker. Kontrolltiere erhielten eine wässrige Trinklösung, enthaltend 3-proz. mannitol anstelle des Carrageenins. Gleichzeitig wurden zufällig ausgewählte Versuchstiere aus diesen beiden Gruppen zweimal täglich mit der Testsubstanz oral behandelt."}, "[3]": {"tested_on": "Bradykinin", "assay": "Rat colon mucosa in vitro (Ussing short-circuit technique), bradykinin-induced secretion", "type": "cell-based, Ratte", "details": "Figur 1; result in words", "source_text": "as §1"}, "[4]": {"tested_on": "LTC₄", "assay": "Rat colon mucosa in vitro (Ussing short-circuit technique), LTC₄-induced electrolyte secretion", "type": "cell-based, Ratte", "details": "6 animals", "source_text": "as §1"}, "[5]": {"tested_on": "Antibiotika-induzierte Kolitis in Hamstern", "assay": "Antibiotic (clindamycin)-induced colitis in hamsters, in vivo", "design": "species or system syrischen Hamstern (LUG)", "description": "Man verabreicht männlichen, 80-120 g schweren syrischen Hamstern (LUG) eine einmalige Dosis von 175 mg/kg Clindamycin-phosphat oder Clindamycin-hydrochlorid intraperitoneal, um eine Kolitis zu induzieren. Ungefähr 7 Stunden nach dieser Injektion verabreicht man den Tieren die zu testende Verbindung oral oder intraperitoneal. Während einer Periode von 4 weiteren Tagen wird diese Therapie zweimal täglich wiederholt. Für die orale Verabreichung wurde die zu testende Verbindung in Wasser suspendiert oder in Dimethylsulfoxid gelöst und mittels einer Magensonde verabreicht. Der Effekt der Therapie wurde durch das sogenannte \"Hazard\"-Verhältnis bestimmt. Es handelt sich dabei um das Verhältnis der Sterblichkeitsrate von Tieren, welche mit der zu testenden Verbindung behandelt worden sind, im Vergleich zu den Tieren, welche nur mit Vehikel behandelt worden sind. Die Sterblichkeitsrate wurde zweimal täglich bestimmt und wurde durch Vergleich der Ueberlebenskurven für jede Gruppe ausgewertet. Für jede Gruppe von Versuchstieren wurde die Kaplan-Meier-Schätzung der Ueberlebenskurve berechnet, und es wurde der Mantel-Cox-Test verwendet, um die Ueberlebenskurve der mit Inhibitor behandelten Gruppe mit derjenigen der nur mit Vehikel behandelten Gruppe zu vergleichen. Ein Hazard-Verhältnis von 1,0 bedeutet, dass der Effekt der Therapie nicht besser ist, als derjenige der mit dem Vehikel allein erzielt wird, währenddem ein Hazard-Verhältnis (>1.0) bedeutet, das die Therapie die Ueberlebensrate im Vergleich zu derjenigen Gruppe, welche nur mit dem Vehikel behandelt worden ist, verbessert."}, "[6]": {"tested_on": "Essigsäure-induzierte Colitis in Ratten", "assay": "Acetic acid-induced colitis in rats, in vivo (myeloperoxidase in colon mucosa)", "design": "species or system Ratten (Sprague-Dawley)", "source_text": "Der Essigsäure-induzierte-Colitis-Bioassay an Ratten ist durch J.E. Krawisz et al. in Amer. J. Proc. Gastro. Col. Rec. Surg. 31, 11-18 (1980) und P. Sharon und W.F. Stenson in Gastroenterology 88, 55-63 (1985) und 86, 453-460 (1984) beschrieben worden. Die Essigsäure-induzierte Colitis ist durch eine Wanderung von Entzündungszellen in das Kolon charakterisiert. Die Anzahl derartiger Zellen in der Mucosa kann bestimmt werden, indem man die Aktivität der Myeloperoxidase, einem Marker-Enzym für diese Zellen, misst. Eine positive gewünschte Wirkung zeigt sich in einer Reduktion des hohen Myeloperoxidase-Spiegels, der durch die Essigsäure verursacht wird. Männliche, 150-300 g schwere Ratten (Sprague-Dawley) werden während 2 Tagen, zweimal täglich entweder mit dem Vehikel (Wasser oder Dimethylsulfoxid) oder der im Wasser suspendierten oder in Dimethylsulfoxid gelösten Testsubstanz oral vorbehandelt. Am 3. Tag behandelt man die Tiere noch einmal wie an den beiden Vortagen, anästhetisiert mit Metofan, injiziert 2 ml 2,5-proz. Essigsäure mittels einer Spritze in das Lumen des Kolons und unmittelbar danach 3 ml Luft und eine Spüllösung, bestehend aus 3 ml Phosphat-gepufferter Kochsalzlösung, […] genügend lange im Lumen, um eine Entzündung zu induzieren, ohne jedoch schwere Nekrose oder irreversible Schäden zu bewirken). […]"}, "[7]": {"tested_on": "LTB₄", "assay": "Rat colon mucosa in vitro (Ussing short-circuit technique), LTB₄-induced electrolyte secretion", "type": "cell-based, Ratte", "details": "6 animals", "source_text": "as §1"}, "[8]": {"tested_on": "LTD₄", "assay": "Rat colon mucosa in vitro (Ussing short-circuit technique), LTD₄-induced electrolyte secretion", "type": "cell-based, Ratte", "details": "6 animals", "source_text": "as §1"}, "[9]": {"details": "Inhibitor Konzentration 1 Mikromol"}, "[10]": {"details": "Inhibitor Konzentration 10 Mikromol"}, "[11]": {"details": "10 mg/kg intraperitoneal in 0,075 ml PEG-400, twice daily, >1.0 = survival better than vehicle"}, "[12]": {"details": "10 mg/kg oral in 0,15 ml Wasser, twice daily"}}, "note": "Marks after values point to notes of the source that are not given here.", "data": [{"compound": "CCCc1c(OCCCCCOc2cc3c(cc2C(C)=O)CCC(C(=O)O)O3)ccc(C(C)=O)c1O", "note": "(racemic) [6-Acetyl-7-[5-(4-acetyl-3-hydroxy-2-propylphenoxy)pentyloxy] -3,4-dihydro-2H-1-benzopyran-2-carbonsäure]", "values": [{"measurement": "% Inhibition gegen Leukotriene LTE₄", "setting": "[1]; Inhibitor Konzentration 1 Mikromol (µM)", "result": "29,8±15,0%"}, {"measurement": "% Inhibition gegen Leukotriene LTE₄", "setting": "[1]; Inhibitor Konzentration 10 Mikromol (µM)", "result": "44,2± 9,8%"}, {"measurement": "Wassertransport-Raten", "setting": "[2]", "result": "praktisch gleich waren, wie diejenigen der Kontroll-Versuchstiere"}, {"measurement": "sekretorische Aktivität von Bradykinin", "setting": "[3]", "result": "reduzieren"}, {"measurement": "% Inhibition gegen Leukotriene LTC₄", "setting": "[4]; [9]", "result": "9,5±19,2%"}, {"measurement": "% Inhibition gegen Leukotriene LTC₄", "setting": "[4]; [10]", "result": "57,1+19,7%"}, {"measurement": "Hazardverhältnis", "setting": "[5]; [11]", "result": "2,87"}, {"measurement": "Hazardverhältnis", "setting": "[5]; [12]", "result": "3,80"}, {"measurement": "Hazardverhältnis", "setting": "[5]; 60 mg/kg intraperitoneal in 0,075 ml PEG-400, twice daily", "result": "4,77"}, {"measurement": "Hazardverhältnis", "setting": "[5]; 60 mg/kg oral in 0,15 ml Wasser, twice daily", "result": "12,0"}, {"measurement": "Hazardverhältnis", "setting": "[5]; 100 mg/kg oral in 0,15 ml Wasser, twice daily", "result": "64,2"}, {"measurement": "Hazardverhältnis", "setting": "[5]; 20 µMol/kg oral (Tabelle 3)", "result": "1,45"}, {"measurement": "Histopathological effects on cecum and colon (oedema, bleeding, necrosis, erosions, inflammatory cell infiltration)", "setting": "[5]; 60 oder 100 mg/kg, in most cases", "result": "reduziert oder gänzlich zum Verschwinden gebracht"}, {"measurement": "Activity against antibiotic-induced colitis", "setting": "[5]; oral doses 10 bis 100 mg/kg", "result": "aktiv"}, {"measurement": "Diarrhö", "setting": "[5]; result in words", "result": "reduzierte"}, {"measurement": "Histopathologie des Cecums und des Kolons", "setting": "[5]; result in words", "result": "verbesserte in einem beträchtlichen Ausmass"}, {"measurement": "Ueberlebensrate der mit Clidamycin behandelten Tiere", "setting": "[5]; result in words", "result": "erhöht"}, {"measurement": "Activity (reduction of myeloperoxidase level caused by acetic acid)", "setting": "[6]; oral 30 und 90 mg/kg, Figur 3", "result": "aktiv"}, {"measurement": "% Inhibition gegen Leukotriene LTB₄", "setting": "[7]; [9]", "result": "44,4±13,1%"}, {"measurement": "% Inhibition gegen Leukotriene LTB₄", "setting": "[7]; [10]", "result": "69,6±11,9%"}, {"measurement": "% Inhibition gegen Leukotriene LTD₄", "setting": "[8]; [9]", "result": "30,8±15,4%"}, {"measurement": "% Inhibition gegen Leukotriene LTD₄", "setting": "[8]; [10]", "result": "62,4±10,0%"}]}, {"compound": "O=C1CCN(c2ccccc2)N1", "note": "[Phenidon, reference compound]", "values": [{"measurement": "Activity (reduction of myeloperoxidase level caused by acetic acid)", "setting": "[6]; oral 100 und 200 mg/kg, Figur 2", "result": "aktiv"}]}, {"compound": "CCCc1c(OCCCOc2ccc3c(=O)cc(CCCC(=O)O)oc3c2CCC)ccc(C(C)=O)c1O", "note": "[Vergleichssubstanz 2, 7-[3-(4-Acetyl-3-hydroxy-2-propylphenoxy)propoxy]-4-oxo-8-propyl-4H-1-benzopryran-2-propancarbonsäure, reference compound]", "values": [{"measurement": "Hazardverhältnis", "setting": "[5]; 13 mg/kg oral in 0,15 ml Wasser, twice daily", "result": "1,68"}, {"measurement": "Activity against antibiotic-induced colitis", "setting": "[5]; oral 10 mg/kg", "result": "inaktive"}]}, {"compound": "CCCc1c(OCC(O)COc2ccc3c(=O)cc(C(=O)O)oc3c2CCC)ccc(C(C)=O)c1O", "note": "(stereo not drawn) [Vergleichssubstanz 1, 7-[-3-(4-Acetyl-3-hydroxy-2-propyl-phenoxy)-2-hydroxypropoxy] -4-oxo-8-propyl-4H-1-benzopyran-2-carbonsäure, reference compound]", "values": [{"measurement": "Hazardverhältnis", "setting": "[5]; [11]", "result": "2,02^c"}, {"measurement": "Hazardverhältnis", "setting": "[5]; [12]", "result": "1,42"}, {"measurement": "Activity against antibiotic-induced colitis", "setting": "[5]; oral 10 mg/kg", "result": "inaktive"}]}, {"compound": "CCCc1c(OCCCCCOc2cc3c(cc2C(C)=O)CCC(C(=O)OC)O3)ccc(C(C)=O)c1O", "note": "(racemic) [6-Acetyl-7-[5-(4-acetyl-3-hydroxy-2-propylphenoxy)pentyloxy]-3,4-dihydro-2H-1-benzopyran-2-carbonsäure-methylester]", "values": [{"measurement": "Hazardverhältnis", "setting": "[5]; 20 µMol/kg oral (Tabelle 3)", "result": "3,42"}]}, {"compound": "6-Acetyl-7-[5-(4-acetyl-3-hydroxy-2-propylphenoxy)pentyloxy]-3,4-dihydro-2H-1-benzopyran-2-carbonsäure-hexylesters", "values": [{"measurement": "Hazardverhältnis", "setting": "[5]; 20 µMol/kg oral (Tabelle 3)", "result": "1,64"}]}]}
